Values quoted from earlier work as cited in patent publication US20070202050A1, “Pharmaceutical Formulations” (priority 2006, published 2007).

How the values were obtained:
[1] = topically active steroid
[2] = test system: secretions of natural tear components; settings: preclinical testing
[3] = test system: symptoms associated with chronic nasal congestion

Structure (SMILES): Cc1cc(CCCOc2c(C)cc(-c3noc(C(F)(F)F)n3)cc2C)on1 [Pleconaril, 1,2,4-oxadiazole3-[3,5-Dimethyl-4-[3-(3-methyl-5-isoxazolyl)propoxy]phenyl]-5-(trifluoremethyl)]
- solubility in water / aqueous solvents: insoluble
- solubility in liquids (for example corn oil and ethanol): soluble only in liquids of low polarity
- activity against rhinoviruses (rhinoviruses): active against rhinoviruses

Structure (SMILES): C[C@@H]1C[C@H]2[C@@H]3CCC4=CC(=O)C=C[C@]4(C)[C@@]3(Cl)[C@@H](O)C[C@]2(C)[C@@]1(OC(=O)c1ccco1)C(=O)CCl [Mometasone Furoate]
- bioavailability [1]: not readily bioavailable

Structure (SMILES): O=c1ccn([C@@H]2O[C@H](COP(=O)(O)OP(=O)(O)OP(=O)(O)OP(=O)(O)OC[C@H]3O[C@@H](n4ccc(=O)[nH]c4=O)[C@H](O)[C@@H]3O)[C@@H](O)[C@H]2O)c(=O)[nH]1 [diquafosol]
- effect on secretions of natural tear components [2]: increased the secretions of natural tear components

Structure (SMILES): Oc1cccc(Nc2ncc(F)c(Nc3cccc(O)c3)n2)c1 [R112]
- absolute difference over placebo [3]: 9%
- improvement from baseline measurements (prior to drug initiation) [3]: up to 38%
- relative improvement over placebo [3]: greater than 20%
